{"source": "patent EP0973746B1", "about": "“SUBSTITUTED 3-CYANO QUINOLINES” (Wyeth Holdings Corporation, priority 1997, dated 1998)", "system": "HTB161", "assay": "Inhibition of cancer cell growth as measured by cell number, HTB161", "format": "cell-based", "conditions": "Homo sapiens, 48 h, read-out: IC50 HTB161"}
{"smiles": "CCOc1cc2ncc(C#N)c(Nc3cccc(Br)c3)c2cc1OCC", "note": "[Example 47, 4-[(3-Bromophenyl)amino]6,7-diethoxy-3-quinolinecarbonitrile]", "values": [{"measurement": "IC50", "value": 3.95, "unit": "ng/mL"}]}
